The target in the assay is T1, human Npt2a (Homo sapiens, UniProt Q06495).
T1 construct: expressed in transfected cells
T1 sequence (Q06495 1-639): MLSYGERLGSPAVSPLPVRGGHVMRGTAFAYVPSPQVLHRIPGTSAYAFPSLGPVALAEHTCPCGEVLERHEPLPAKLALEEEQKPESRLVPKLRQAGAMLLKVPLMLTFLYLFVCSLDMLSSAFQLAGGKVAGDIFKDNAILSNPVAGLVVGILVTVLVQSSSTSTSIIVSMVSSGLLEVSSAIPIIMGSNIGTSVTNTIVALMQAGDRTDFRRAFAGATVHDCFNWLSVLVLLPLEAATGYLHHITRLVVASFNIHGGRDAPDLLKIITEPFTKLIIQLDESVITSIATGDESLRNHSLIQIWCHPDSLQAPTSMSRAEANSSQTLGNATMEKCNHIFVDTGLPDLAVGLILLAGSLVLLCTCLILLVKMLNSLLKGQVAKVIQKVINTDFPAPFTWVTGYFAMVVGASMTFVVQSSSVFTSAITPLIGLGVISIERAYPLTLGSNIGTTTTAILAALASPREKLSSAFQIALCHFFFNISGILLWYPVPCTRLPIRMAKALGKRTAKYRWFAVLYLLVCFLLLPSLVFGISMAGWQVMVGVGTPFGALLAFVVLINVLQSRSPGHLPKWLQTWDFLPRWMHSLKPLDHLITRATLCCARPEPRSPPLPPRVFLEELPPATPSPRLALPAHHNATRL
Kind of assay: Npt2a activity cell based assay, membrane potential dye, CHO T-REx hNpt2a cells. The following applies: doxycycline-induced, depolarization by sodium phosphate influx, average or median values if tested more than once. In a few lines:
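Doxycycline-induced (0.5 μg/mL, 24 h) CHO T-REx cells were loaded with membrane potential dye in sodium-free NHE buffer (pH 7.4) and exposed to compound (50 μM–1 nM, 5 min, room temperature).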
By IC50 is commonly meant the point on the concentration scale where inhibition reaches its midpoint. `CCc1c(Nc2cc(-n3nc(C)c(CC(C)(C)O)c3C)ncn2)nn(C)c1-c1ccc(F)cc1` [Example 238, 1-[1-(6-{[4-ethyl-5-(4-fluorophenyl)-1-methyl-1H-pyrazol-3-yl]amino}pyrimidin-4-yl)-3,5-dimethyl-1H-pyrazol-4-yl]-2-methylpropan-2-ol]: the IC50 is 0.083 µM. This lies in the double-digit nanomolar range.
Next, `Cc1nn(-c2cc(Nc3nn(CCC4CC4)c(-c4ccc(C#N)cc4)c3C)ncn2)c(C(F)F)c1Cl` [Example 239, 4-[3-({6-[4-chloro-5-(difluoromethyl)-3-methyl-1H-pyrazol-1-yl]pyrimidin-4-yl}amino)-1-(2-cyclopropylethyl)-4-methyl-1H-pyrazol-5-yl]benzonitrile]: 0.29 µM.
The value for `Cc1cc(C(F)F)n(-c2cc(Nc3c(C)c(-c4ccc(C#N)cc4)nn3C)ncn2)n1` [Example 240, 4-[5-({6-[5-(difluoromethyl)-3-methyl-1H-pyrazol-1-yl]pyrimidin-4-yl}amino)-1,4-dimethyl-1H-pyrazol-3-yl]benzonitrile] was 0.018 µM; that for `Cc1nn(-c2cc(Nc3c(C)c(-c4ccc(C#N)cc4)nn3C)ncn2)c(C(F)F)c1Cl` [Example 241, 4-[5-({6-[4-chloro-5-(difluoromethyl)-3-methyl-1H-pyrazol-1-yl]pyrimidin-4-yl}amino)-1,4-dimethyl-1H-pyrazol-3-yl]benzonitrile] was 0.007 µM; that for `CCc1c(Nc2cc(-n3ccc(C)n3)ncn2)nn(C)c1-c1ccc(F)cc1` [Example 242, N-[4-ethyl-5-(4-fluorophenyl)-1-methyl-1H-pyrazol-3-yl]-6-(3-methyl-1H-pyrazol-1-yl)pyrimidin-4-amine] was 0.021 µM.
The value for `Cc1ccn(-c2cc(Nc3c(C)c(-c4ccc(C#N)cc4)nn3CC3CC3)ncn2)n1` [Example 243, 4-[1-(cyclopropylmethyl)-4-methyl-5-{[6-(3-methyl-1H-pyrazol-1-yl)pyrimidin-4-yl]amino}-1H-pyrazol-3-yl]benzonitrile] was 0.028 µM; that for `Cc1nn(-c2cc(Nc3c(C)c(-c4ccc(F)cc4)nn3CC3CC3)ncn2)c(C)c1C1(O)CC1` [Example 244, 1-[1-(6-{[1-(cyclopropylmethyl)-3-(4-fluorophenyl)-4-methyl-1H-pyrazol-5-yl]amino}pyrimidin-4-yl)-3,5-dimethyl-1H-pyrazol-4-yl]cyclopropanol] was 0.008 µM; that for `CCc1c(Nc2cc(-n3cccn3)ncn2)nn(C)c1-c1ccc(F)cc1` [Example 245, N-[4-ethyl-5-(4-fluorophenyl)-1-methyl-1H-pyrazol-3-yl]-6-(1H-pyrazol-1-yl)pyrimidin-4-amine] was 0.66 µM.
In the case of `Cc1c(-c2ccc(C#N)cc2)nn(CC2CC2)c1Nc1cc(-n2cccn2)ncn1` [Example 246, 4-[1-(cyclopropylmethyl)-4-methyl-5-{[6-(1H-pyrazol-1-yl)pyrimidin-4-yl]amino}-1H-pyrazol-3-yl]benzonitrile], the IC50 worked out at 0.34 µM. This IC50 is about 1.9-fold lower than that of the compound before.
As for `Cc1c(-c2ccc(C#N)cc2)nn(CC2CC2)c1Nc1cc(-n2cc(C(F)(F)F)cn2)ncn1` [Example 247, 4-[1-(cyclopropylmethyl)-4-methyl-5-({6-[4-(trifluoromethyl)-1H-pyrazol-1-yl]pyrimidin-4-yl}amino)-1H-pyrazol-3-yl]benzonitrile], the concentration for half-maximal inhibition (IC50) was found to be 0.029 µM.
The value for `Cc1cc(C)n(-c2cc(Nc3c(C)c(-c4ccc(C#N)cc4)nn3CC(F)F)ncn2)n1` [Example 248, 4-[1-(2,2-difluoroethyl)-5-{[6-(3,5-dimethyl-1H-pyrazol-1-yl)pyrimidin-4-yl]amino}-4-methyl-1H-pyrazol-3-yl]benzonitrile] was 0.182 µM; that for `CCc1c(Nc2cc(-n3cc(C(F)(F)F)cn3)ncn2)nn(C)c1-c1ccc(F)cc1` [Example 250, N-[4-ethyl-5-(4-fluorophenyl)-1-methyl-1H-pyrazol-3-yl]-6-[4-(trifluoromethyl)-1H-pyrazol-1-yl]pyrimidin-4-amine] was 0.021 µM; that for `Cc1cc(C(F)F)n(-c2cc(Nc3nn(CC(F)F)c(-c4ccc(C#N)cc4)c3C)ncn2)n1` [Example 251, 4-[1-(2,2-difluoroethyl)-3-({6-[5-(difluoromethyl)-3-methyl-1H-pyrazol-1-yl]pyrimidin-4-yl}amino)-4-methyl-1H-pyrazol-5-yl]benzonitrile] was 0.014 µM.
Next, `Cc1cc(C)n(-c2cc(Nc3nn(CC(F)F)c(-c4ccc(C#N)cc4)c3C)ncn2)n1` [Example 252, 4-[1-(2,2-difluoroethyl)-3-{[6-(3,5-dimethyl-1H-pyrazol-1-yl)pyrimidin-4-yl]amino}-4-methyl-1H-pyrazol-5-yl]benzonitrile]: 0.048 µM; `COc1c(Nc2cc(-n3nc(C)cc3C)ncn2)nn(C)c1-c1ccc(F)cc1` [Example 253, 6-(3,5-dimethyl-1H-pyrazol-1-yl)-N-[5-(4-fluorophenyl)-4-methoxy-1-methyl-1H-pyrazol-3-yl]pyrimidin-4-amine]: 0.067 µM.
The value for `COc1c(-c2ccc(F)cc2)nn(C)c1Nc1cc(-n2nc(C)cc2C)ncn1` [Example 254, 6-(3,5-dimethyl-1H-pyrazol-1-yl)-N-[3-(4-fluorophenyl)-4-methoxy-1-methyl-1H-pyrazol-5-yl]pyrimidin-4-amine] was 0.15 µM; that for `CCc1c(Nc2cc(-n3nc(C)c(CC4(O)CC4)c3C)ncn2)nn(C)c1-c1ccc(F)cc1` [Example 256, 1-{[1-(6-{[4-ethyl-5-(4-fluorophenyl)-1-methyl-1H-pyrazol-3-yl]amino}pyrimidin-4-yl)-3,5-dimethyl-1H-pyrazol-4-yl]methyl}cyclopropanol] was 0.035 µM.
In turn, `CCOC(=O)Cc1c(C)nn(-c2cc(Nc3c(C)nn(-c4ccc(C#N)cc4)c3C)ncn2)c1C` [Example 257, ethyl [1-(6-{[1-(4-cyanophenyl)-3,5-dimethyl-1H-pyrazol-4-yl]amino}pyrimidin-4-yl)-3,5-dimethyl-1H-pyrazol-4-yl]acetate] showed a 50% inhibitory concentration (IC50) of 0.074 µM.
The value for `CCOC(=O)c1cc(C)nn1-c1cc(Nc2c(C)c(-c3ccc(C#N)cc3)nn2CC2CC2)ncn1` [Example 258, ethyl 1-(6-{[3-(4-cyanophenyl)-1-(cyclopropylmethyl)-4-methyl-1H-pyrazol-5-yl]amino}pyrimidin-4-yl)-3-methyl-1H-pyrazole-5-carboxylate] was 2.8 µM; that for `CCOC(=O)c1c(Cl)c(C)nn1-c1cc(Nc2nn(C)c(-c3ccc(F)cc3)c2C)ncn1` [Example 259, ethyl 4-chloro-1-(6-{[5-(4-fluorophenyl)-1,4-dimethyl-1H-pyrazol-3-yl]amino}pyrimidin-4-yl)-3-methyl-1H-pyrazole-5-carboxylate] was 0.05 µM.
Next, `Cc1cc(C)n(-c2cc(Nc3c(C)c(-c4ccc(Br)cc4)nn3C)ncn2)n1` [Example 260, N-[3-(4-bromophenyl)-1,4-dimethyl-1H-pyrazol-5-yl]-6-(3,5-dimethyl-1H-pyrazol-1-yl)pyrimidin-4-amine]: 0.14 µM.
The value for `Cc1nn(-c2cc(Nc3nn(C)c(-c4ccc(F)cc4)c3C)ncn2)c(C(C)(C)O)c1Cl` [Example 261, 2-[4-chloro-1-(6-{[5-(4-fluorophenyl)-1,4-dimethyl-1H-pyrazol-3-yl]amino}pyrimidin-4-yl)-3-methyl-1H-pyrazol-5-yl]propan-2-ol] was 0.02 µM.

(Values after patent US11208400B2, “Substituted 6-(1H-pyrazol-1-yl)pyrimidin-4-amine derivatives and uses thereof” (Bayer Aktiengesellschaft, priority 2016, dated 2021).)
